Source: US20090123389A1, “Methods for modulating Th17 cell development in the treatment and prevention of cellulite” (priority 2007, published 2009)
Several values for one entry are separate records, joined by “and”; a condition that tells them apart may be missing. Equal values may be shown once. Read-outs that look alike come from different tables or passages of the source.

Tested on: CD4+ CD25− T cells
Experiment: Th17 differentiation / IL-17 expression of activated CD4+ CD25− T cells (TGFβ plus IL-6)
Format: cell-based, mouse
Conditions: for IC50: Mus musculus, T-cell
Experimental: Low doses of halofuginone (HF) were tested to determine the ability of HF to enhance Treg differentiation, while suppressing Th17 differentiation. Naïve CD4+ T cells (CD4+ CD25−) were isolated from the spleen and peripheral lymph nodes of C57B/6 mice. T cells were then activated using anti-CD3 (0.3 μg/ml) and anti-CD28 (0.5 μg/ml) antibodies either in media alone (row 1, 4), TGFβ alone (3 ng/ml—row 2, 5) or TGFβ (3 ng/ml) plus IL-6 (30 ng/ml) (row 3, 6). […] T cells were cultured for 3 days and CD25 and Foxp3 expression (Treg marker genes) was determine by FACS staining and flow cytometric analyses. Simultaneously, T cells were harvested and re-stimulated for 4 hours using phorbol myristic acetate (PMA; 10 nM), Ionomycin (1 μM) and cytokine secretion was prevented using brefeldin A (20 μg/ml). Following stimulation, the production of IL-17 and IFNγ were determined by intracellular staining and analyzed via flow cytometry.
The dose-response of HF on CD4+ T cell proliferation, activation (i.e. CD25 upregulation) and differentiation to Th1, Th2 and Th17 lineages were evaluated. Purified murine naïve CD4+ CD25− T cells were activated using anti-CD3 (0.3 μg/ml) and anti-CD28 (0.5 μg/ml) antibodies and varying amounts of HF was added to each T cell culture condition (1.25 nM-40 nM). CD4+ T cell proliferation was monitored by CFSE dilution on day 3-post activation and CD25 expression was evaluated by FACS staining 2 days after activation. For T cell differentiation experiments, naïve T cells were activated as above in the presence of Th1 (IL-12 (20 ng/ml) plus anti-IL-4 (1.5 μg/ml)), Th2 (IL-4 (50 ng/ml) plus anti-IFNγ (0.5 mg/ml)) or Th17 (TGFβ (3 ng/ml) plus IL-6 (30 ng/ml)) polarizing conditions plus titrating amounts of HF (1.25 nM-40 nM) or MAZ1310 (40 nM). […] All cytokine expression was determined by intracellular staining following PMA+Ionomycin+Brefeldin A re-stimulation and all data was normalized to control (MAZ1310)-treated cells. […] Biol., vol. 80:1-8 (2006).
Cytokines, antibodies and T cell culture: Purified CD4^+ CD25^− T cells were activated in vitro as previously described (I. M. Djuretic et al., Nat Immunol 8, 145 (2007)) using 0.3 μg/ml hamster anti-mouse CD3 (clone 145-2C11) (ATCC—Manassas, Va.) and 0.5 μg/ml hamster anti-mouse CD28 (BD Pharmingen, San Jose, Calif.). Activated cell cultures were differentiated using the following combinations of cytokines and antibodies: iTreg=recombinant human TGFβ1 (3 ng/ml; R&D systems, Minneapolis, Minn.), Th17=TGFβ1 (3 ng/ml) plus recombinant mouse IL-6 (30 ng/ml, R&D systems). Th1 and Th2 differentiation was performed as previously described. (I. M. Djuretic et al., Nat Immunol 8, 145 (2007)). Human IL-2 supernatant (National Cancer Institute) was used in culture at 0.01 U/ml and was added at 48 hours-post activation when T cells were split into tissue culture wells lacking CD3 and CD28 antibodies, with the exception of Th17 cultures that were maintained in the absence of IL-2. All reagents were added at the time of T cell activation and again at 48-hours post activation unless indicated otherwise. For some experiments, purified CD4^+ CD25^− T cells, CD8^+ T cells or B cells were labeled with 1 μM CFSE (Invitrogen) prior to activation in accordance with manufacturers instructions.
MAZ1310 was generated by chemical derivatization of halofuginone and was used at equal concentrations as a negative control.

SMILES: O=C(CC1NCCCC1O)Cn1cnc2cc(Br)c(Cl)cc2c1=O (racemic) [HF, 7-bromo-6-chloro-3-[3-(3-hydroxy-2-piperidinyl)-2-oxopropyl]-4(3H)-quinazolinone]
- IL-17 expression in cultures where IFNγ and IL-4 were blocked by neutralizing antibodies: reduced IL-17 expression
- window of HF addition at start of culture giving most pronounced inhibition of IL-17 expression (10 nM HF added at different times after activation): 12 h
- IL-17 expression in T cells lacking Foxp3 (10 nM HF, TGFβ plus IL-6): strongly repressed
- Th17 differentiation of T cells expressing STAT3C (10 nM HF, TGFβ plus IL-6): remained capable of differentiating into Th17 cells
- Il17 and Il17f mRNA expression (10 nM HF, Th17 conditions, 4 days): impaired expression
- IC50 (96 h, percentage of IL-17+ IFNγ− cells after restimulation on day 4-5, read-out: IC50 of repression of Th17 differentiation): 3.6 nM
- IC50 (in vitro, read-out: 50% inhibition of Th17 cell development): 2 to 3 nM
- Th17 differentiation of cells expressing YFP or no transgene (TAT-Cre treated T cells, TGFβ plus IL-6): strongly impaired
- HF concentration that inhibited expression of IL-17 (TGFβ/IL-6 treated T-cells): 2.5 to 10 nM and 2.2 to 10 nM
- IL-17 production (low concentrations of HF (1-10 nM)): strongly reduced
- fold lower doses for effects on Th17 differentiation than for general inhibition of T-cell proliferation and differentiation (versus proliferation and Th1 or Th2 differentiation): 5- to 10 fold and ~10 fold
